Structures can show the parent of a compound that is named as a salt.
Legend:
[1] = pH measurement of aqueous solutions by pH-meter; type: physicochemical; settings: for pH of aqueous stock solution: before pH adjustment
Method: When a pH value is referred to, it is measured by a pH-meter conventionally.
3′-SL Na-salt was made by bacterial fermentation and isolated in accordance with e.g. WO 2017/152918. An aqueous stock solution was made the concentration of which was 5.3 g/100 g, pH: 4.8.
Series A: a part of the above aqueous stock solution was adjusted to pH of 3.6 by addition of 1 M HCl-solution. The so-obtained solution was freeze-dried to give a white amorphous powder. The pH of its 5 w/w % solution was 3.9.
6′-SL Na-salt was made by bacterial fermentation and isolated in accordance with e.g. US 2018/0002363. An aqueous stock solution was made the concentration of which was 9.1 g/100 g, pH: 5.4.
Series A: a part of the above aqueous stock solution was adjusted to pH of 3.1 by addition of 1 M HCl-solution. The so-obtained solution was freeze-dried to give a white amorphous powder. The pH of its 5 w/w % solution was 3.5.

[2] = Forced heat stability test of freeze-dried amorphous 3′-SL samples, analysed by HPAEC-PAD; type: physicochemical
Method: Seven by one gram from each series, separately, was put into 4 ml glass vials and closed with screw lid containing teflon inliner (21 samples altogether). Three samples from each series were put into a 60° C. oven, and another three samples from each series were put into a 80° C. oven. One samples from each series was removed from the ovens after a time indicated below and kept in a freezer until analysis. The t=0 samples (one sample from each series) were kept in freezer during the entire time of the test.
The samples were analysed together after the longest incubation had finished by HPAEC-PAD on Carbopac PA-200 (3×250 mm) column using isocratic 75 mM NaOH+37.5 mM NaOAc eluent.

SMILES: CC(=O)N[C@H]1[C@H]([C@H](O)[C@H](O)CO)O[C@@](OC[C@H]2O[C@@H](O[C@H]3[C@H](O)[C@@H](O)[C@H](O)O[C@@H]3CO)[C@H](O)[C@@H](O)[C@H]2O)(C(=O)O)C[C@@H]1O [Example 2 Series D, 6′-sialyllactose]
- pH of the 5 w/w % solution of the freeze-dried amorphous powder ([1]; 5 w/w % aqueous solution after freeze-drying): 6.2

SMILES: CC(=O)N[C@H]1[C@H]([C@H](O)[C@H](O)CO)O[C@@](O[C@H]2[C@@H](O)[C@@H](CO)O[C@@H](O[C@H]3[C@H](O)[C@@H](O)C(O)O[C@@H]3CO)[C@@H]2O)(C(=O)O)C[C@@H]1O (stereo partly drawn) [Example 1 Series C, 3′-sialyllactose]
- content of 3′-O-sialyl-lactulose (ketose rearranged derivative of 3′-SL) in the sample ([2]; 60° C., 2 weeks, solid in closed vial, listed as sample C): 2.67 area %
- content of 3′-O-sialyl-lactulose (ketose rearranged derivative of 3′-SL) in the sample ([2]; 60° C., 4 weeks, solid in closed vial, listed as sample C): 2.96 area %
- content of 3′-O-sialyl-lactulose (ketose rearranged derivative of 3′-SL) in the sample ([2]; 60° C., 6 weeks, solid in closed vial, listed as sample C): 3.03 area %
- content of 3′-O-sialyl-lactulose (ketose rearranged derivative of 3′-SL) in the sample ([2]; 80° C., 1 weeks, solid in closed vial, listed as sample C): 2.95 area %
- content of 3′-O-sialyl-lactulose (ketose rearranged derivative of 3′-SL) in the sample ([2]; 80° C., 2 weeks, solid in closed vial, listed as sample C): 3.38 area %
- content of 3′-O-sialyl-lactulose (ketose rearranged derivative of 3′-SL) in the sample ([2]; 80° C., 4 weeks, solid in closed vial, listed as sample C): 4.61 area %
- content of 3′-O-sialyl-lactulose (ketose rearranged derivative of 3′-SL) in the sample ([2]; t = 0, kept in freezer, listed as sample C): 1.81 area %

SMILES: CC(=O)N[C@H]1[C@H]([C@H](O)[C@H](O)CO)O[C@@](O[C@H]2[C@@H](O)[C@@H](CO)O[C@@H](O[C@H]3[C@H](O)[C@@H](O)C(O)O[C@@H]3CO)[C@@H]2O)(C(=O)O)C[C@@H]1O (stereo partly drawn) [Example 1 Series B, 3′-sialyllactose]
- content of 3′-O-sialyl-lactulose (ketose rearranged derivative of 3′-SL) in the sample ([2]; 60° C., 2 weeks, solid in closed vial, listed as sample B): 2.16 area %
- content of 3′-O-sialyl-lactulose (ketose rearranged derivative of 3′-SL) in the sample ([2]; 60° C., 4 weeks, solid in closed vial, listed as sample B): 2.16 area %
- content of 3′-O-sialyl-lactulose (ketose rearranged derivative of 3′-SL) in the sample ([2]; 60° C., 6 weeks, solid in closed vial, listed as sample B): 2.31 area %
- content of 3′-O-sialyl-lactulose (ketose rearranged derivative of 3′-SL) in the sample ([2]; 80° C., 1 weeks, solid in closed vial, listed as sample B): 2.34 area %
- content of 3′-O-sialyl-lactulose (ketose rearranged derivative of 3′-SL) in the sample ([2]; 80° C., 2 weeks, solid in closed vial, listed as sample B): 2.39 area %
- content of 3′-O-sialyl-lactulose (ketose rearranged derivative of 3′-SL) in the sample ([2]; 80° C., 4 weeks, solid in closed vial, listed as sample B): 2.88 area %
- content of 3′-O-sialyl-lactulose (ketose rearranged derivative of 3′-SL) in the sample ([2]; t = 0, kept in freezer, listed as sample B): 1.77 area %

SMILES: CC(=O)N[C@H]1[C@H]([C@H](O)[C@H](O)CO)O[C@@](O[C@H]2[C@@H](O)[C@@H](CO)O[C@@H](O[C@H]3[C@H](O)[C@@H](O)C(O)O[C@@H]3CO)[C@@H]2O)(C(=O)O)C[C@@H]1O (stereo partly drawn) [Example 1 Series A, 3′-sialyllactose]
- content of 3′-O-sialyl-lactulose (ketose rearranged derivative of 3′-SL) in the sample ([2]; 60° C., 2 weeks, solid in closed vial, listed as sample A): 1.66 area %
- content of 3′-O-sialyl-lactulose (ketose rearranged derivative of 3′-SL) in the sample ([2]; 60° C., 4 weeks, solid in closed vial, listed as sample A): 2.12 area %
- content of 3′-O-sialyl-lactulose (ketose rearranged derivative of 3′-SL) in the sample ([2]; 60° C., 6 weeks, solid in closed vial, listed as sample A): 1.96 area %
- content of 3′-O-sialyl-lactulose (ketose rearranged derivative of 3′-SL) in the sample ([2]; 80° C., 1 weeks, solid in closed vial, listed as sample A): 1.91 area %
- content of 3′-O-sialyl-lactulose (ketose rearranged derivative of 3′-SL) in the sample ([2]; 80° C., 2 weeks, solid in closed vial, listed as sample A): 1.97 area %
- content of 3′-O-sialyl-lactulose (ketose rearranged derivative of 3′-SL) in the sample ([2]; 80° C., 4 weeks, solid in closed vial, listed as sample A): 2.24 area %
- content of 3′-O-sialyl-lactulose (ketose rearranged derivative of 3′-SL) in the sample ([2]; t = 0, kept in freezer, listed as sample A): 1.75 area %

SMILES: CC(=O)N[C@H]1[C@H]([C@H](O)[C@H](O)CO)O[C@@](OC[C@H]2O[C@@H](O[C@H]3[C@H](O)[C@@H](O)[C@H](O)O[C@@H]3CO)[C@H](O)[C@@H](O)[C@H]2O)(C(=O)O)C[C@@H]1O [6′-SL Na-salt, 6′-sialyllactose]
- pH of aqueous stock solution ([1]; concentration 9.1 g/100 g): 5.4

SMILES: CC(=O)N[C@H]1[C@H]([C@H](O)[C@H](O)CO)O[C@@](O[C@H]2[C@@H](O)[C@@H](CO)O[C@@H](O[C@H]3[C@H](O)[C@@H](O)C(O)O[C@@H]3CO)[C@@H]2O)(C(=O)O)C[C@@H]1O (stereo partly drawn) [3′-SL Na-salt, 3′-sialyllactose]
- pH of aqueous stock solution ([1]; concentration 5.3 g/100 g): 4.8
